# In patent publication US12503438B2, “Compounds for the treatment of kinase-dependent disorders” (Exelixis, Inc., priority 2019, dated 2025):
# What was measured:
# Human Axl = target: T1, Human Axl (Homo sapiens, UniProt P30530, Q764R); assay: Human AXL kinase assay (33P-phosphoryl transfer radiometric, KinaseProfiler); conditions: biochemical activity; 10 μM ATP
# T1 construct: Human Axl (residues H473-A894 with Q764R, 161 nM); purchased Eurofins Pharma Discovery Services UK Limited (KinaseProfiler service)
# T1 sequence (P30530 473-894 Q764R): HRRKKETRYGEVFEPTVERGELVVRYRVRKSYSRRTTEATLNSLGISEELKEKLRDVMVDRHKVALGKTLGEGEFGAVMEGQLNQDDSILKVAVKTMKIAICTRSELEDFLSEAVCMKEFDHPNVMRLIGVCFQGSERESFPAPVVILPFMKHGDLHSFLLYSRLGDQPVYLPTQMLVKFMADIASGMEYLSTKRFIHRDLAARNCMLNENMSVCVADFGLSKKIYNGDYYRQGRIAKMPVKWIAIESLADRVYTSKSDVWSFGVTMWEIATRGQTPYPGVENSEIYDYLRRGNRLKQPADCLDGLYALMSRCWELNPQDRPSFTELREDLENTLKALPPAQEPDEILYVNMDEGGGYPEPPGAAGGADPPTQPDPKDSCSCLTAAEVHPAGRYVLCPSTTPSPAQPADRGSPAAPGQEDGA
# Met = Met (Homo sapiens, UniProt P08581); assay: Human Met kinase assay (33P-phosphoryl transfer radiometric, KinaseProfiler); set-up: Human Met (residues R974-S1390 with A1209G and V1290L, 3.4 nM); purchased Eurofins Pharma Discovery Services UK Limited (KinaseProfiler service); conditions: biochemical activity; 10 μM ATP; read-out: c-Met IC50
# Chain of Met (P08581 974-1390): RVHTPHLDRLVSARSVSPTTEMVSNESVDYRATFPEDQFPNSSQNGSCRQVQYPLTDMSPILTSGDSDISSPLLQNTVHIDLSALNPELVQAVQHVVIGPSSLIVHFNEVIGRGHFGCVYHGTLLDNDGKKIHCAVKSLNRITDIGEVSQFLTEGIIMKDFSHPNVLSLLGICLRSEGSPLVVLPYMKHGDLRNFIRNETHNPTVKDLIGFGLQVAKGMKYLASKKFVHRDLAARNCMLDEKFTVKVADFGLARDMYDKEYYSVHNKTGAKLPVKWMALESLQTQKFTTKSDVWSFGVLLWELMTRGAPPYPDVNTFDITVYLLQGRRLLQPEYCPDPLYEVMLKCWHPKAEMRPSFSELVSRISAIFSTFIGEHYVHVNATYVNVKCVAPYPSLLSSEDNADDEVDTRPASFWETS
# Human Mer = target: T2, Human Mer (Homo sapiens, UniProt Q12866); assay: Human Mer kinase assay (33P-phosphoryl transfer radiometric, KinaseProfiler); conditions: biochemical activity; 10 μM ATP
# T2 construct: Human Mer (residues R557-E882 with H628Q and R794A, 0.7 nM); purchased Eurofins Pharma Discovery Services UK Limited (KinaseProfiler service)
# T2 sequence (Q12866 557-882 limits assumed): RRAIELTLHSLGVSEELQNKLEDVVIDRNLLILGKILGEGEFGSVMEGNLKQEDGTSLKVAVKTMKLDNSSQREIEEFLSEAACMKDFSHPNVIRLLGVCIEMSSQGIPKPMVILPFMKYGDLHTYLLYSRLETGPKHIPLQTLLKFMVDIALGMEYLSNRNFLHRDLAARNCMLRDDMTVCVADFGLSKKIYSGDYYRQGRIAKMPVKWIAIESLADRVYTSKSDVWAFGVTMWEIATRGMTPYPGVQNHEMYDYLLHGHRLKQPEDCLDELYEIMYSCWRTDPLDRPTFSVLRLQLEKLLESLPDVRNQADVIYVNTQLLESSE
# Outline: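 Radiometric filter-binding assay with human Mer R557-E882 (H628Q/R794A; 0.7 nM) in MOPS pH 7.0. Nine half-log compound concentrations (top 1 μM, 2% DMSO) gave IC50 by variable-slope sigmoidal fit.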
# KDR = KDR (Homo sapiens, UniProt P35968); assay: Human KDR kinase assay (33P-phosphoryl transfer radiometric, KinaseProfiler); set-up: Human KDR (residues K790-V1356, 55 nM); purchased Eurofins Pharma Discovery Services UK Limited (KinaseProfiler service); conditions: biochemical activity; 10 μM ATP
# Chain of KDR (P35968 790-1356): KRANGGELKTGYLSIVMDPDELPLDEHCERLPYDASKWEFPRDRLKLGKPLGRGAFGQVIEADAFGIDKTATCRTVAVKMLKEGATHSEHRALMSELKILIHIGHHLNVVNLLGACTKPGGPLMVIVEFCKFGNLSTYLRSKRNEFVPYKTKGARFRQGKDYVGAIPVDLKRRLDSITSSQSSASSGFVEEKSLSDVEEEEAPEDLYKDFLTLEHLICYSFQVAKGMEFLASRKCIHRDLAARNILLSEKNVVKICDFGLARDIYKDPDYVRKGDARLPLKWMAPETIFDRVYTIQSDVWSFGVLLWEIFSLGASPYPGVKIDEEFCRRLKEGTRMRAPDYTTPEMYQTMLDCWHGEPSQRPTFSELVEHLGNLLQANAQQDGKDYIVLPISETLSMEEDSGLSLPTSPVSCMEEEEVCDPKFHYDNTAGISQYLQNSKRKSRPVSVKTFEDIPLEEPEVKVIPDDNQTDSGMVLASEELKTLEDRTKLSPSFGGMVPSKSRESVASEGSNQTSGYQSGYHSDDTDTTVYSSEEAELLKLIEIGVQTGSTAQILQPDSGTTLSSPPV
SMILES,IC50 (Human Axl) [nM],IC50 (Met) [nM],IC50 (Human Mer) [nM],IC50 (KDR) [nM]
"CN(C(=O)C1(C(=O)Nc2ccc(Oc3ccnc4cc(-c5cnn(C)c5)ccc34)cc2)CC1)c1ccc(F)cc1 [Compound 82A, 1-N′-(4-Fluorophenyl)-1-N′-methyl-1-N-[4-[7-(1-methylpyrazol-4-yl)quinolin-4-yl]oxyphenyl]cyclopropane-1,1-dicarboxamide]",100 to 1000,100 to 1000,100 to 1000,100 to 1000
"O=C(Nc1ccc(F)cc1)C1(C(=O)Nc2ccc(Oc3ccnc4cc(-c5ccn(C(F)F)n5)ccc34)cc2)CC1 [Compound 84, 1-N-[4-[7-[1-(Difluoromethyl)pyrazol-3-yl]quinolin-4-yl]oxyphenyl]-1-N′-(4-fluorophenyl)cyclopropane-1,1-dicarboxamide]",10 to 100,10 to 100,≤ 10,10 to 100
"O=C(Nc1ccc(F)cc1)C1(C(=O)Nc2ccc(Oc3ccnc4cc(-c5ccccn5)ccc34)cc2)CC1 [Compound 85, 1-N′-(4-Fluorophenyl)-1-N-[4-(7-pyridin-2-ylquinolin-4-yl)oxyphenyl]cyclopropane-1,1-dicarboxamide]",10 to 100,10 to 100,≤ 10,10 to 100

# Second part, the compound after the results:
IC50 (Human Axl) [nM],IC50 (Met) [nM],IC50 (Human Mer) [nM],IC50 (KDR) [nM],SMILES
10 to 100,10 to 100,≤ 10,10 to 100,"Cc1cc(F)cc(C)c1NC(=O)C1(C(=O)Nc2ccc(Oc3ccnc4cc(-c5cnn(C)c5)ccc34)cc2)CC1 [Compound 82, 1-N′-(4-Fluoro-2,6-dimethylphenyl)-1-N-[4-[7-(1-methylpyrazol-4-yl)quinolin-4-yl]oxyphenyl]cyclopropane-1,1-dicarboxamide]"
10 to 100,≤ 10,≤ 10,10 to 100,"O=C(Nc1ccc(F)cc1)C1(C(=O)Nc2ccc(Oc3ccnc4cc(C5CCNC5)ccc34)cc2)CC1 (stereo not drawn) [Compound 83, 1-N′-(4-Fluorophenyl)-1-N-[4-(7-pyrrolidin-3-ylquinolin-4-yl)oxyphenyl]cyclopropane-1,1-dicarboxamide]"
≤ 10,≤ 10,≤ 10,10 to 100,"Cn1ncc(-c2ccc3c(Oc4ccc(NC(=O)C5(C(=O)Nc6ccc(F)cc6)CC5)cc4)ccnc3c2)n1 [Compound 86, 1-N′-(4-Fluorophenyl)-1-N-[4-[7-(2-methyltriazol-4-yl)quinolin-4-yl]oxyphenyl]cyclopropane-1,1-dicarboxamide]"
